Tests used:
Assay in all cases: relative viability (nuclei count vs DMSO), 5 days (fraction); higher = more cells survive
NCI-H650 = test system: NCI-H650
In short: (§1)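 Lung cancer cell lines in 1536-well plates got either a single drug or a fixed anchor-drug dose together with five library-drug doses (not always all listed) in √10 steps, by pin tool, on the day after seeding. Nuclei were counted after 5 days, and relative viability is the treated-to-vehicle ratio of nuclei counts. Values are medians of duplicate plates.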

NCI-H322M = test system: NCI-H322M
In short: as §1

EPLC-272H = test system: EPLC-272H
In short: as §1

SK-MES-1 = test system: SK-MES-1
In short: as §1

NCI-H2023 = test system: NCI-H2023
In short: as §1

NCI-H2087 = test system: NCI-H2087
In short: as §1

LCLC-103H = test system: LCLC-103H
In short: as §1

UMC-11 = test system: UMC-11
In short: as §1

NCI-H1563 = test system: NCI-H1563
In short: as §1

NCI-H1651 = test system: NCI-H1651
In short: as §1

ChaGo-K-1 = test system: ChaGo-K-1
In short: as §1

NCI-H520 = test system: NCI-H520
In short: as §1

NCI-H1395 = test system: NCI-H1395
In short: as §1

NCI-H1355 = test system: NCI-H1355
In short: as §1

HCC-827 = test system: HCC-827
In short: as §1

NCI-H1944 = test system: NCI-H1944
In short: as §1

HCC-44 = test system: HCC-44
In short: as §1

NCI-H1793 = test system: NCI-H1793
In short: as §1

NCI-H2085 = test system: NCI-H2085
In short: as §1

LCLC-97TM1 = test system: LCLC-97TM1
In short: as §1

EMC-BAC-2 = test system: EMC-BAC-2
In short: as §1

H3255 = test system: H3255
In short: as §1

NCI-H2405 = test system: NCI-H2405
In short: as §1

Q: Which results are given for `Oc1nc(-c2ccc(C(F)(F)F)cc2)nc2c1CSCC2` [XAV939] + CS(=O)(=O)N1CCN(Cc2cc3nc(-c4cccc5[nH]ncc45)nc(N4CCOCC4)c3s2)CC1 [Pictilisib] (partner 1 µM)?
A: relative viability (NCI-H650; first compound 0.08 µM): 0.916; relative viability (NCI-H650; first compound 0.253 µM): 1.05; relative viability (NCI-H650; first compound 0.8 µM): 0.881; relative viability (NCI-H650; first compound 2.53 µM): 0.74; relative viability (NCI-H322M; first compound 0.08 µM): 0.572; relative viability (NCI-H322M; first compound 0.253 µM): 0.491; relative viability (NCI-H322M; first compound 0.8 µM): 0.541; relative viability (NCI-H322M; first compound 2.53 µM): 0.439; relative viability (EPLC-272H; first compound 0.08 µM): 0.347; relative viability (EPLC-272H; first compound 0.253 µM): 0.36; relative viability (EPLC-272H; first compound 0.8 µM): 0.302; relative viability (EPLC-272H; first compound 2.53 µM): 0.323; relative viability (SK-MES-1; first compound 0.08 µM): 0.401; relative viability (SK-MES-1; first compound 0.253 µM): 0.327; relative viability (SK-MES-1; first compound 0.8 µM): 0.415; relative viability (SK-MES-1; first compound 2.53 µM): 0.32; relative viability (NCI-H2023; first compound 0.08 µM): 0.177; relative viability (NCI-H2023; first compound 0.253 µM): 0.187; relative viability (NCI-H2023; first compound 0.8 µM): 0.176; relative viability (NCI-H2023; first compound 2.53 µM): 0.158; relative viability (NCI-H2087; first compound 0.08 µM): 0.976; relative viability (NCI-H2087; first compound 0.253 µM): 0.636; relative viability (NCI-H2087; first compound 0.8 µM): 0.897; relative viability (NCI-H2087; first compound 2.53 µM): 0.876; relative viability (LCLC-103H; first compound 0.08 µM): 0.724; relative viability (LCLC-103H; first compound 0.253 µM): 0.483; relative viability (LCLC-103H; first compound 0.8 µM): 0.601; relative viability (LCLC-103H; first compound 2.53 µM): 0.498; relative viability (UMC-11; first compound 0.08 µM): 0.733; relative viability (UMC-11; first compound 0.8 µM): 0.752; relative viability (UMC-11; first compound 2.53 µM): 0.712; relative viability (NCI-H1563; first compound 0.08 µM): 0.645; relative viability (NCI-H1563; first compound 0.253 µM): 0.656; relative viability (NCI-H1563; first compound 0.8 µM): 0.605; relative viability (NCI-H1563; first compound 2.53 µM): 0.611; relative viability (NCI-H1651; first compound 0.08 µM): 0.569; relative viability (NCI-H1651; first compound 0.253 µM): 0.454; relative viability (NCI-H1651; first compound 0.8 µM): 0.53; relative viability (NCI-H1651; first compound 2.53 µM): 0.638; relative viability (ChaGo-K-1; first compound 0.08 µM): 0.629; relative viability (ChaGo-K-1; first compound 0.253 µM): 0.598; relative viability (ChaGo-K-1; first compound 0.8 µM): 0.729; relative viability (ChaGo-K-1; first compound 2.53 µM): 0.648; relative viability (NCI-H520; first compound 0.08 µM): 0.24; relative viability (NCI-H520; first compound 0.253 µM): 0.251; relative viability (NCI-H520; first compound 0.8 µM): 0.236; relative viability (NCI-H520; first compound 2.53 µM): 0.227; relative viability (NCI-H1395; first compound 0.08 µM): 0.685; relative viability (NCI-H1395; first compound 0.253 µM): 0.58; relative viability (NCI-H1395; first compound 0.8 µM): 0.597; relative viability (NCI-H1395; first compound 2.53 µM): 0.675; relative viability (NCI-H1355; first compound 0.08 µM): 0.414; relative viability (NCI-H1355; first compound 0.253 µM): 0.374; relative viability (NCI-H1355; first compound 0.8 µM): 0.387; relative viability (NCI-H1355; first compound 2.53 µM): 0.236; relative viability (HCC-827; first compound 0.08 µM): 1.05; relative viability (HCC-827; first compound 0.253 µM): 1.02; relative viability (HCC-827; first compound 0.8 µM): 1.24; relative viability (HCC-827; first compound 2.53 µM): 1.21; relative viability (NCI-H1944; first compound 0.08 µM): 0.37; relative viability (NCI-H1944; first compound 0.253 µM): 0.197; relative viability (NCI-H1944; first compound 0.8 µM): 0.348; relative viability (NCI-H1944; first compound 2.53 µM): 0.287; relative viability (HCC-44; first compound 0.08 µM): 0.748; relative viability (HCC-44; first compound 0.253 µM): 0.627; relative viability (HCC-44; first compound 0.8 µM): 0.577; relative viability (HCC-44; first compound 2.53 µM): 0.636; relative viability (NCI-H1793; first compound 0.08 µM): 0.344; relative viability (NCI-H1793; first compound 0.253 µM): 0.308; relative viability (NCI-H1793; first compound 0.8 µM): 0.308; relative viability (NCI-H1793; first compound 2.53 µM): 0.363; relative viability (NCI-H2085; first compound 0.08 µM): 0.388; relative viability (NCI-H2085; first compound 0.253 µM): 0.412; relative viability (NCI-H2085; first compound 0.8 µM): 0.445; relative viability (NCI-H2085; first compound 2.53 µM): 0.355; relative viability (LCLC-97TM1; first compound 0.08 µM): 0.169; relative viability (LCLC-97TM1; first compound 0.253 µM): 0.198; relative viability (LCLC-97TM1; first compound 0.8 µM): 0.165; relative viability (LCLC-97TM1; first compound 2.53 µM): 0.18; relative viability (EMC-BAC-2; first compound 0.08 µM): 0.56; relative viability (EMC-BAC-2; first compound 0.253 µM): 0.487; relative viability (EMC-BAC-2; first compound 0.8 µM): 0.416; relative viability (EMC-BAC-2; first compound 2.53 µM): 0.314; relative viability (H3255; first compound 0.08 µM): 0.486; relative viability (H3255; first compound 0.253 µM): 0.374; relative viability (H3255; first compound 0.8 µM): 0.499; relative viability (H3255; first compound 2.53 µM): 0.288; relative viability (NCI-H2405; first compound 0.08 µM): 0.502; relative viability (NCI-H2405; first compound 0.253 µM): 0.526; relative viability (NCI-H2405; first compound 0.8 µM): 0.416; relative viability (NCI-H2405; first compound 2.53 µM): 0.378

Source: the supplement of paper PMC10307832
